Reference: EP3339444A1, “METHOD FOR OBTAINING A GL[…] AN INCREASED PERCENTAGE OF AF[…]” (Mabxience Research, S.L., priority 2016, dated 2018)

Legend:
[1] = tested on: CHO cell line producing adalimumab; experiment: Glycosylation profile (N-linked glycans released, labeled, chromatography) with arginine in culture; format: cell-based, Chinese Hamster
Method: (§1) A transduced CHO cell line was used with three different culture media (Media 1, 2 and 3) in a fed-batch process with 5 different feeds (Feed 1,2,3,4 and 5) and at two culture scales, AMBR system (15 mL culture) and 1 L scale Bioreactors. Feeding strategy was based on maintaining glucose concentration between 3-4 g/L through the addition of different amount of feeding depending on glucose concentration measurement in culture media.
(§2) Process parameters & Conditions AMBR: T: 36.5 °C; Stirrer: 900 rpm; DO: 20%; pH:6.8-7.20; initial density: 0.5x10^6 cells/mL. Process parameters & Conditions 1 L: T: 36.5 °C; Stirrer: 200 rpm/240 rpm (day 7); DO: 20%; pH: 6.8-7.20; initial density: 0.5x10^6 cells/mL.
N-linked glycans were released from IgG samples by overnight incubation with N-glycosidase. The released glycans were labeled with a specific fluorophore. The labeled glycans were bound and separate by a chromatography. N-linked glycan structures were assigned to peaks based on comparison to reference structures. The amount of each structure is expressed as the percentage of total peak area. G0, G1, and G2 refer to complex, neutral, biantennary structures with 0, 1, or 2 terminal galactose residues, while G0F, G1 F, are G2F, are the corresponding core fucosylated structures.
Afucosylation: [GO-GlcNac + G0 + G1 + G2] / [GO-GlcNac + G0 + G0F + G1 + G1 F + G2 + G2F]

[2] = tested on: CHO cell line producing adalimumab; experiment: Viable cell density (VCD) and viability in fed-batch culture with arginine; format: cell-based, Chinese Hamster
Method: The cells were cultured in AMBR vessels in the cell culture media described above. The vessels were maintained at 36.5 °C, pH 7±0.2, 20% of DO and at 900 rpm of stirrer. They were seeded at 0.5 x 10^6 cells per ml in a volume of 11 mL. On days 0, 3, and 5, at least 2% of initial culture volume of feed medium and 0.2% of initial culture volume of cystine/tyrosine were added. Day 0 is the day in which the cultures were started, day 1 is the first day thereafter, day 2 is the second day thereafter, etc. Protein titer was determined on days 10, 12, 14 and 16.
The cells were cultured in 1 L scale bioreactor in the above described cell culture media. The cultures were maintained at 36.5 °C, pH 7±0.2, 20% of oxygen dissolved (DO) and at 200 rpm of stirrer. They were seeded at 0.5 x 10^6 cells per ml in a volume of 600mL. On days 0, 3, and 5, at least 2% of initial culture volume of feed medium and 0.2% of initial culture volume of cystine/tyrosine were added.
as §1, §2

[3] = Media_1 Feed_2, 2 and 4 g/L arginine, AMBR

Question: For N=C(N)NCCC[C@H](N)C(=O)O [Arg, arginine], which “increment in G0 forms” value ([1]; Media_2 Feed_1, 4 g/L arginine, day 16, 1 L bioreactor) is on record?
Answer: higher than 50%

Question: What about the “increment in G1 forms” value ([1]; Media_3 Feed_3, 4 g/L arginine, day 14, AMBR) of the same compound?
Answer: higher than 50%

Question: What about the “increment in G1 forms” value ([1]; Media_3 Feed_4, 4 g/L arginine, day 16, AMBR) of the same compound?
Answer: higher than 50%

Question: And the “reduction of VCD (maximum)” value [2, 3]?
Answer: about 2 million cells

Question: And the viability [2, 3]?
Answer: do nott affect viability

Question: What about the “cell growth and viability” value ([2]; Media_1 Feed_2, 8 g/L arginine, AMBR) of the same compound?
Answer: important reduction on cell growth affecting viability

Question: And the maximum cell density ([2]; Media_2 Feed_1, 0-4 g/L arginine, AMBR)?
Answer: does not reduce the maximum cell density reached

Question: What about the maximum cell density ([2]; Media_2 Feed_1, 4 g/L arginine, 1 L bioreactor) of the same compound?
Answer: a delay and a decrease in the obtained maximum cell density

Question: What about the “maximum VCD” value ([2]; Media_2 Feed_2, 2 g/L arginine, AMBR) of the same compound?
Answer: does not affect maximum VCD

Question: What about the cell growth ([2]; Media_2 Feed_2, 8 g/L arginine, AMBR) of the same compound?
Answer: important reduction on cell growth

Question: What about the cell growth ([2]; Media_3 Feed_1, 2 to 4 g/L arginine, AMBR) of the same compound?
Answer: reduces cell growth

Question: And the cell density ([2]; Media_3 Feed_3, 4 g/L arginine in combination with ferric citrate, AMBR)?
Answer: does not have a negative effect in cell density

Question: What about the cell density ([2]; Media_3 Feed_4, 4 g/L arginine in combination with 1 mM 3-methyl butyrate, AMBR) of the same compound?
Answer: does not have a negative effect in cell density
